From patent publication US11339193B2, “CDP protein secretion inhibitors” (KEZAR LIFE SCIENCES, priority 2018, dated 2022)
Numbered stars: 1 amine (or outer) side, 2 acyl side, 3 side chain; on linkers, the order of the positions; unused ones are H or OH. Square brackets hold non-standard residues; d marks the D form. Peptide text beside a SMILES is read from it. NMeTrp(1-(4-Br-benzyl)) = CN[C@@H](Cc1cn(Cc2ccc(Br)cc2)c2ccccc12)C(=O)O; Butanoyl(2R-oxy,4-CN) = N#CCC[C@@H](O)C(=O)O; NMe3Pal(5-F) = CN[C@@H](Cc1cncc(F)c1)C(=O)O; X22 = CCCC[C@@H](C)C[C@H](N[*:1])C(=O)[*:2]; Nva(5,5,5-F3) = N[C@@H](CCC(F)(F)F)C(=O)O; Abu(4,4,4-F3) = N[C@@H](CC(F)(F)F)C(=O)O; NMeL = CN[C@@H](CC(C)C)C(=O)O; NMeA = CN[C@@H](C)C(=O)O

Key:
Format in all cases: cell-based
[1] = system: PD1-ss+10aa/Gaussia Luciferase; assay: Dox induced PD1-ss-Gluc assay; conditions: Flp-In 293 T-REx cells, doxycycline, 24 hours; read-out: PD1ss Gluc IC50
Outline: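 Stable Flp-In 293 T-REx line expressing doxycycline-inducible Gaussia luciferase fused to the PD1 signal sequence plus 10 amino acids. Cells plated the day before, then exposed to compound dilutions in DMSO/media containing doxycycline at 37 °C, 5% CO2.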

[2] = system: TNFα-FL/Gaussia Luciferase; assay: Dox induced TNFα-FL-Gluc assay; conditions: Flp-In 293 T-REx cells, doxycycline, 24 hours; read-out: TNFa FL Gluc IC50
Outline: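 Stable Flp-In 293 T-REx line expressing full-length TNFα (aa 1-233) fused at its C-terminus to Gaussia luciferase under doxycycline-inducible control. Cells plated the day before, then given compound dilutions in DMSO/media containing doxycycline and incubated at 37 °C, 5% CO2.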

[3] = system: NCI-H929 multiple myeloma cell line; assay: H929 assay (cell viability, Celltiter-Glo); conditions: Homo sapiens, NCI-H929; 48 hours, cell viability; read-out: H929 EC50
Outline: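 Cells plated in RPMI 1640 with 10% FBS and 2 mM glutamine, treated with compound dilutions in DMSO/media. Incubation 48 h at 37° C, 5% CO2. Viability from luciferase luminescence signal.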

[4] = system: Prl-ss+10aa/Gaussia Luciferase; assay: Prl-ss-Gluc assay (constitutively active or 24 hr Dox inducible); conditions: Flp-In 293 T-REx cells, 24 hours; read-out: Prl IC50
Outline: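 Stable Flp-In 293 T-REx lines express Prl signal sequence+10aa fused to Gaussia luciferase, either constitutively (pcDNA5/FRT) or under the T-REx promoter (pcDNA5/FRT/TO). Cells plated the day before; compounds in DMSO/media (with doxycycline for the inducible line, 24 h) incubated at 37 °C, 5% CO2.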

[5] = system: VCAMss+10aa/Gaussia Luciferase; assay: VCAM-ss-Gluc assay (constitutively active or Dox induced); conditions: Flp-In 293 T-REx cells, 24 hours
Experimental: Assays Constitutively Active VCAM-ss-Gluc Assay
Transfected cells were selected for resistance to the selectable markers Hygromycin and Blasticidin to create a stable cell line that constitutively expressed the VCAMss+ 10aa/Gaussia Luciferase fusion protein. The day before assay, cells were trypsinized and plated in 384-well tissue culture plates. The next day, culture media was removed from the wells and replaced with fresh media. Compound dilutions in DMSO/media were added to the wells and incubated at 37° C., 5% CO2.
Dox Induced VCAM-ss-Gluc Assay
Transfected cells were selected for resistance to the selectable markers Hygromycin and Blasticidin to create a stable cell line that contained the VCAMss+10aa/Gaussia Luciferase cDNA insert whose expression was regulated under the T-REx™ system. The day before assay, cells were trypsinized and plated in 384-well tissue culture plates. The next day, compound dilutions in DMSO/media containing doxycycline were added to the wells and incubated at 37° C., 5% CO2.

[6] = system: JJN3 plasma cell leukemia cell line; assay: JJN-3 assay (Alamar blue); conditions: Homo sapiens, 72 h
Experimental: (§1) BT474 is a human breast tumor cell line. JJN3 is a human plasma cell leukemia cell line. […] Cells were seeded at 100 000 cells/mL. Aliquots of 5000 cells (50 μL) were added to each well in black, clear bottom 96-well plates. Compounds or control (50 uL of 1% DMSO in cell culture medium) were added to the cells to the indicated final concentrations and cells were incubated for 72 h (unless otherwise specified). After incubation was complete, Alamar blue (10 uL of a 1 mg/mL solution) was added to each well and plates were incubated for 5 h. Fluorescence was then measured (excitation 545 nm, emission 590 nm) and is reported as […] normalized to DMSO control.

[7] = system: U266B1 multiple myeloma cell line; assay: U266 assay (cell viability, Celltiter-Glo); conditions: Homo sapiens, U-266; 48 hours, cell viability
Experimental: Cells were plated in 384-well tissue culture plates and treated with compound dilutions in DMSO/media. Plates were incubated at 37° C., 5% CO2 for 48 hours. After 48 hours, Celltiter-Glo@ (Promega) was added to each well and luciferase signal was quantified using Tecan Infinite M1000 Pro for cell viability determination.

HER3ss-Gluc = assay: HER3ss assay; conditions: HEK-293T T-rex cells, transient transfection, doxycycline, 24 h; read-out: HER3 ss IC50
Outline: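 HEK-293T T-REx cells were transiently transfected with HER3 signal sequence (plus four mature-domain residues) fused upstream of mature Gaussia luciferase. Cells were induced with doxycycline (1 μg/ml) and exposed to increasing compound concentrations for 24 h, then secreted luciferase in the conditioned medium was read by luminescence.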

[8] = system: BT474 breast tumor cell line; assay: BT474 assay (Alamar blue); conditions: Homo sapiens, BT-474, 72 h
Experimental: as §1

Row | Compound | IC50 [1] [nM] | IC50 [2] [nM] | EC50 [3] [nM] | IC50 [4] [µM] | IC50 [5] [nM] | EC50 [6] [nM] | EC50 [7] [µM] | IC50 (HER3ss-Gluc) [nM] | EC50 [8] [µM]
1 | COc1ccc(Cn2cc(C[C@H]3C(=O)N[C@@H](CC(C)C)C(=O)N(C)[C@@H](C)C(=O)O[C@H](C)C(=O)N[C@@H](CC(C)C)C(=O)N(C)[C@@H](CC(C)C)C(=O)N[C@@H](CC(C)C)C(=O)N3C)c3ccccc32)cc1 [C-11] (HELM PEPTIDE1{L.[meA].[C[C@@H](O[*:1])C(=O)[*:2]].L.[meL].L.[COc1ccc(Cn2cc(C[C@@H](C(=O)[*:2])N(C)[*:1])c3ccccc32)cc1]}$PEPTIDE1,PEPTIDE1,1:R1-7:R2$$$V2.0) | 52 | 295 | 2560 | 4.5 | 2090 | 792 | 23.7 | – | –
2 | CCCC[C@@H](C)C[C@@H]1NC(=O)[C@H](Cc2ccc(F)cn2)N(C)C(=O)[C@H](CC(C)C)NC(=O)[C@H](CC(C)C)N(C)C(=O)[C@H](C[C@H](C)CCCC)NC(=O)[C@@H](CCC#N)OC(=O)[C@H](C)N(C)C1=O [C-17] | 149 | 274 | 2200 | 6.34 | 14 | – | 9.13 | – | –
3 | CCCC[C@@H](C)C[C@@H]1NC(=O)[C@H](Cc2cncc(F)c2)N(C)C(=O)[C@H](CC(C)C)NC(=O)[C@H](CC(C)C)N(C)C(=O)[C@H](C[C@H](C)CCCC)NC(=O)[C@@H](CCC#N)OC(=O)[C@H](C)N(C)C1=O [C-24] (cyclo(L[NMe3Pal(5-F)][X22][NMeA][Butanoyl(2R-oxy,4-CN)][X22][NMeL])) | 86 | 131 | 1480 | 1.66 | 22 | – | 5.54 | – | –
4 | COc1ccccc1Cn1cc(C[C@H]2C(=O)N[C@@H](CC(C)C)C(=O)N(C)[C@@H](C)C(=O)O[C@H](CCC#N)C(=O)N[C@@H](CC(C)C)C(=O)N(C)[C@@H](CC(C)C)C(=O)N[C@@H](CC(C)C)C(=O)N2C)c2ccccc21 [C-32] (HELM PEPTIDE1{L.[meA].[N#CCC[C@@H](O[*:1])C(=O)[*:2]].L.[meL].L.[COc1ccccc1Cn1cc(C[C@@H](C(=O)[*:2])N(C)[*:1])c2ccccc21]}$PEPTIDE1,PEPTIDE1,1:R1-7:R2$$$V2.0) | 203 | 1050 | 4720 | 14.2 | – | – | – | 161 | 5.28
5 | CC(C)C[C@@H]1NC(=O)[C@H](Cc2ccccc2)N(C)C(=O)[C@H](CC(C)C)NC(=O)[C@H](CC(C)C)N(C)C(=O)[C@H](CC(C)C)NC(=O)[C@@H](C)OC(=O)[C@H](C)N(C)C1=O [C-34] (HELM PEPTIDE1{L.[meA].[C[C@@H](O[*:1])C(=O)[*:2]].L.[meL].L.[meF]}$PEPTIDE1,PEPTIDE1,1:R1-7:R2$$$V2.0) | 1050 | – | 6540 | – | 274 | – | – | 963 | –
6 | CC(C)C[C@@H]1NC(=O)[C@H](Cc2cn(Cc3ccc(Br)cc3)c3ccccc23)N(C)C(=O)[C@H](CCC(F)(F)F)NC(=O)[C@H](CC(C)C)N(C)C(=O)[C@H](CC(F)(F)F)NC(=O)[C@@H](CCC#N)OC(=O)[C@H](C)N(C)C1=O [C-57] (cyclo(L[NMeA][Butanoyl(2R-oxy,4-CN)][Abu(4,4,4-F3)][NMeL][Nva(5,5,5-F3)][NMeTrp(1-(4-Br-benzyl))])) | 26 | 112 | 834 | 1.5 | – | 154 | – | – | 0.832
